“And” between values parts separate entries of the source, which are not always exact repeats. Equal values may be shown once.
Tests used:
[1] = molecular target: AD Tissue 2846; assay: 3H radioligand competition, AD Tissue 2846; type: binding; conditions: hot concentration 2 nM
Method: (§1) A series of compounds were synthesized and the Ki (nM) in the presence of Fibrils 4174, PD-seeded fibrils (using Tg-1-90B as the radioligand), AD Tissue 6843 and/or AD Tissue 2846 was determined. In each experiment, the “hot” concentration was 2 nM.

[2] = molecular target: T1, PD-seeded fibrils (Homo sapiens (Human), UniProt P37840); assay: Radioligand competition, PD-seeded fibrils (Tg-1-90B as radioligand); type: binding; conditions: PD-seeded fibrils (Tg-1-90B radioligand); hot concentration 2 nM
Method: as §1

[3] = molecular target: Fibrils 4174 (Homo sapiens, UniProt P37840); assay: 3H radioligand competition, Fibrils 4174; type: binding; conditions: hot concentration 2 nM
Method: as §1

[4] = molecular target: AD Tissue 6843; assay: 3H radioligand competition, AD Tissue 6843; type: binding; conditions: hot concentration 2 nM
Method: as §1

[5] = tested on: AD Tissue 6843; assay: Heterologous competition binding assay with [11C]Tg-1-90-B, AD tissue; conditions: radioligand [11C]Tg-1-90-B
Method: FIG. 11D is a plot of a heterologous competition binding assay of TZ55-101 in the presence of the radioligand [^11C]Tg-1-90-B and AD tissue 6843.
(§2) The equilibrium inhibitor constant (Ki) of a series of compounds was measured using heterologous radioactive binding assays with [^18F]TZ61-44, […], or [^125I]TZ61-84 as the screening radioligands. EC50 values for each compound were determined by fitting the data to the equation Y=Bottom+(Top−Bottom)/(1+(X−Log EC50)^−Hillcoefficient) using nonlinear regression by Kaleidagraph software, where Top and Bottom are the Y values for the top and bottom plateaus of the binding curve. The Ki values were derived from the EC50 values using the Cheng-Prusoff equation: Ki=EC50/(1+[radioligand]/Kd). FIGS. 5A-5E show the inhibition curves for TG-1-90B, TZ55-101, TZ61-84, TZ55-107, and TZ55-81 using [^18F]TZ61-44 as the radioligand. FIG. 11B-C show the inhibition curves for two separate experiments on PD fibrils for TZ55-101 using […] as the radioligand. FIGS. 12A-12F show the inhibition curves for TZ66-3, TZ64-015, TZ64-016, TZ64-018, TZ64-019, and TZ64-020 using [^18F]TZ61-44 as the radioligand. FIGS. 13A-13D show the inhibition curves for TZ66-9, TZ66-8, and TZ55-107 using [^18F]TZ61-44 as the radioligand.
The binding to AD fibrils was also assessed for TZ55-101 in FIG. 11D.

[6] = molecular target: PD fibrils (Homo sapiens (Human), UniProt P37840); assay: Heterologous competition binding assay with [11C]Tg-1-90B as radioligand; conditions: radioligand Tg-1-90-B
Method: as §2

[7] = molecular target: T1, PD-seeded fibrils; assay: Heterologous competition binding assay with [18F]TZ61-44 as radioligand; conditions: radioligand [18F]TZ61-44, 25 nM PD-seeded fibrils; for Ki: Cheng-Prusoff from EC50
Method: as §2

[8] = molecular target: Banner seeded fibrils (Homo sapiens (Human), UniProt P37840); assay: Saturation binding of [125I]TZ61-84 to Banner seeded fibrils
Method: The binding efficacy (Kd) of TZ-61-84 was determined using a modified protocol. Specifically, saturation plots of radiolabeled [^125I]TZ61-84 were obtained measuring total and nonspecific binding of TZ61-84 to 100 nM Banner seeded fibrils. The results are depicted in FIG. 15B-15D and that TZ61-84 has a high binding affinity to α-synuclein (Kd<1 nM).

[9] = molecular target: T2, α-synuclein fibrils (Homo sapiens (Human), UniProt P37840); assay: Specific binding of TZ61-84: displacement of [18F]TZ-61-84 from fibrils; conditions: [18F]TZ-61-84 at 0.0195 nM
Method: (§3) TZ61-84 was screened for binding to Banner PD tissue, AD tissue, α-synuclein fibrils, Aβ fibrils and in controls by measuring how well it displaced [^18F]TZ-61-84 (at 0.0195 nM) from each substrate.

[10] = tested on: Banner PD tissue; assay: Specific binding of TZ61-84: displacement of [18F]TZ-61-84 from tissue; conditions: [18F]TZ-61-84 at 0.0195 nM
Method: as §3

[11] = molecular target: T2, α-synuclein fibrils; assay: Thioflavin T fluorescence competitive assay; conditions: read-out: Thioflavin T assay Ki; competition with ThT on recombinant α-synuclein fibrils; at least three experiments
Method: α-Synuclein recombinant protein was produced in E. coli. BL21(DE3)RIL E. coli were transformed with a pRK172 bacterial expression plasmid containing the human α-synuclein coding sequence. […] Overnight cultures were pelleted by centrifugation at 3,900×g for 10 min at 25° C. Bacterial pellets were resuspended in 20 mL osmotic shock buffer (30 mM Tris-HCl, 2 mM EDTA, 40% sucrose, pH 7.2) by gentle vortexing and incubated at room temperature for 10 minutes. The cell suspension was then centrifuged at 8,000×g for 10 min at 25° C. and the pellet was resuspended in 22.5 mL cold H2O before adding 9.4 μL 2 M MgCl2 to each tube. The suspension was incubated on ice for 3 min prior to centrifugation at 20,000×g for 15 min at 4° C. The supernatant was transferred to a fresh tube, streptomyocin was added to a final concentration of 10 mg/mL, and then centrifuged at 20,000×g for 15 min at 4° C. The supernatant from this step was collected and dithiothreitol (DTT) and Tris-HCl were added to final concentrations of 1 mM and 20 mM respectively, before boiling for 10 min to precipitate heat-sensitive proteins, which were pelleted at 20,000×g for 15 minutes at 4° C. The supernatant was collected and filtered through a 0.45 μm surfactant free cellulose acetate filter (Corning, Corning, NY) before loading onto a 1 mL DEAE Sepharose column equilibrated in 20 mM Tris-HCl pH 8, 1 mM EDTA, and 1 mM DTT. The DEAE column was washed with 20 mM Tris-HCl pH 8, 1 mM EDTA, 1 mM DTT before eluting α-synuclein protein in 20 mM Tris-HCl, pH 8, buffer with 1 mM EDTA, 1 mM DTT and 0.3 M NaCl. The purified α-synuclein protein was dialyzed overnight in 10 mM Tris-HCl, pH 7.6, 50 mM NaCl, and 1 mM DTT.
The purified, recombinant α-synuclein monomer (2 mg/mL) was incubated in Tris-HCl (20 mM) and NaCl (100 mM) while shaking at 1000 rpm in an Eppendorf Thermomixer in a 37° C. temperature-controlled room for 72 hours. To determine the concentration of fibrils, the reaction mixture (100 μL) was centrifuged at 18,000×g for 10 minutes to separate fibrils from monomer. The α-synuclein monomer and other soluble proteins in the supernatant were removed, and the fibril pellet was resuspended in 100 μL solution of Tris-HCl (20 mM) and NaCl (100 mM). This fibril suspension was used in a bicinchoninic acid (BCA) protein assay along with a bovine serum albumin (BSA) standard curve to determine the concentration of fibrils in the 72 hour fibril reaction mixture.
To prepare the fibrils for performing binding assays, the fibril reaction mixture prepared above was centrifuged at 18,000×g for 10 minutes. The supernatant was discarded and the fibril pellet was resuspended in Tris-HCl buffer (30 nM, pH=7.4) to achieve the desired concentration (3 or 6 μM) of fibrils for use in the assay.
The ThT solution (6 μM) in Tris-HCl buffer (30 nM, pH=7.4, 40 μL) was added to each of three cells in a 96 cell plate for fluorescence detection containing α-synuclein fibrils suspension (3.0 μM) in the Tris-HCl buffer (30 nM, pH=7.4, 40 μL). The mixture was incubated at room temperature for 1 hour on the shaking plate. The reaction plate was scanned by the excitation wavelength range from 430 to 465 nm. The maximum excitation wavelength (λex) was determined according to the fluorescent intensity-excitation wavelength curve.

[12] = tested on: Banner AD tissue; assay: Homologous competition radioligand binding assay, AD tissue; set-up: species or system human; conditions: [18F]28
Method: (§4) The equilibrium dissociation constant (Kd) for a series of compounds was determined using direct radioactive competitive binding assays (homologous or heterologous) with either recombinant α-synuclein fibrils or brain tissue homogenates from AD cases.
Brain tissue samples were selected from an autopsy case series of patients evaluated for parkinsonism by movement disorders specialists at the Movement Disorders Center of Washington University School of Medicine in St. Louis. […] Dementia was determined by a movement disorders specialist based on clinical assessment of cognitive dysfunction sufficiently severe to impair activities of daily living, with further evaluation of cognitive impairment using the AD8 and Mini-Mental Status Exam (MMSE) [Galvin, J. E., et al., “The AD8: a brief informant interview to detect dementia,” 2005, Neurology 65:559-564; Folstein, M. F., et al., ““Mini-mental state”. […] LB stage was assessed at autopsy using a PD staging scale (range: 0, 1-6) [Braak, H., et al., “Stages in the development of Parkinson's disease-related pathology,” 2004, Cell Tissue Res., 318:121-134]. PD cases were selected based on a clinical diagnosis of PD plus dementia, Braak LB stage 5-6 pathology, and the absence of significant Aβ or tau pathology determined by immunohistochemistry. […]

[13] = tested on: α-synuclein fibrils; assay: Direct radioligand binding assay of [18F]28, α-synuclein fibrils; set-up: species or system human; conditions: comparison of Kd on fibrils and AD tissue
Method: as §4
(§5) Recombinant protein was produced in E. coli using protocols based on previously described methods for α-synuclein [Giasson, B. I., et al., “Mutant and wild type human alpha-synucleins assemble into elongated filaments with distinct morphologies in vitro,” 1999, J Biol. Chem., 274:7619-7622; Huang, C., et al., “A new method for purification of recombinant human alpha-synuclein in Escherichia coli,” 2005, Protein Expr Purif, 42:173-177; Yu, L., et al, “Synthesis and in vitro evaluation of á-synuclein ligands,” 2012, Bioorg. […]
(§6) Purified recombinant α-synuclein monomer (2 mg/ml) was incubated in 20 mM Tris-HCl, pH 8.0, 100 mM NaCl for 72 h at 37 C with shaking at 1000 rpm in an Eppendorf Thermomixer. […] The concentration of α-synuclein monomer in the supernatant was determined in a BCA protein assay according to the manufacturer's instructions, using a bovine serum albumin (BSA) standard curve. The measured decrease in α-synuclein monomer concentration was used to determine the concentration of fibrils in the 72 h fibril reaction mixture. […]

[14] = molecular target: T2, α-synuclein fibrils; assay: as above; conditions: α-synuclein fibrils
Method: as §4, §5, §6

Question: Which results are given for `COc1ccc2nc(-c3noc(-c4ccc(-n5cccn5)cc4)n3)ccc2c1` [TZ46-148]?
Answer: Ki [1]: 7 nM; Ki [2]: 17 nM; Ki [3]: 82 nM; Ki [4]: 13 nM

Question: Which “affinity for AD fibrils” value [5] does the source give for `COc1ccc(-c2ccc3cc(-c4cnc5ccccc5c4)ccc3n2)cn1` [TZ55-101] here?
Answer: Its value is “did not show significant affinity”.

Question: And the EC50 [6]?
Answer: Its EC50 is 21 nM and 11 nM.

Question: And the Ki ([6]; Cheng-Prusoff from EC50)?
Answer: Its Ki is 20 nM and 10 nM.

Question: What about the EC50 [7] of the same compound?
Answer: The EC50 was 15 nM.

Question: What about the Ki [7] of the same compound?
Answer: Its Ki is 14 nM.

Question: Which Kd ([8]; 100 nM Banner seeded fibrils, saturation binding) does the source give for `COc1ccc(Nc2ccc3cc(OC/C=C/I)ccc3n2)cn1` [TZ61-84] here?
Answer: The Kd was 0.34 nM and 0.5 nM.

Question: And the Kd ([8]; 100 nM fibrils, saturation plot, unit inferred)?
Answer: The Kd was 0.338 nM and 0.496 nM.

Question: What about the Bmax ([8]; 100 nM fibrils, saturation plot, unit not given, listed as [^125I]TZ61-84) of the same compound?
Answer: The Bmax was 259.7 and 310.5.

Question: And the “affinity for α-synuclein fibrils over Aβ fibrils” value [9]?
Answer: Its value is “slightly more affinity”.

Question: What about the “affinity for PD Banner tissue compared to AD Banner tissue” value [10] of the same compound?
Answer: The value was “high affinity”.

Question: And the EC50 [7]?
Answer: Its EC50 is 17 nM.

Question: And the Ki [7]?
Answer: Its Ki is 16 nM.

Question: With `COc1cc(-c2nc(-c3ccc4cc(OCCF)ccc4n3)no2)ccn1` [Compound 28, 3-(6-(2-Fluoroethoxy)quinolin-2-yl)-5-(2-methoxypyridin-4-yl)-1,2,4-oxadiazole] as the compound, how does the Ki [11] read?
Answer: The Ki was 17 nM.

Question: What about the Bmax [12] of the same compound?
Answer: The Bmax was 1082 pmol/mg.

Question: And the Kd [12]?
Answer: The Kd was 25 nM.

Question: And the “selectivity for α-synuclein fibrils over AD tissues” value [13]?
Answer: The value was “lacks selectivity”.

Question: What about the Kd [14] of the same compound?
Answer: Its Kd is 18 nM.

Reference: patent US12012394B2, “Alpha-synuclein ligands” (Washington University, priority 2018, dated 2024)
